From patent publication US20260273131A1, “Cell graft delivered in a delivery system and use thereof in regenerative medicine” (China Medical University, priority 2022, published 2026)
Several values for one entry are separate records, joined by “and”; a condition that tells them apart may be missing. Identical values can stand only once. Where no end group is shown, it is not given here.

What was measured:
[1] = test system: hMSCs; experiment: Fluorescent peptide binding to hMSCs (confocal microscopy, imaging flow cytometry); type: cell-based, human; settings: for binding to hMSCs: fluorescent peptide 0, 2.5, 10, 40 μM, 37° C.; for percentage of cells surrounded by FITC-conjugated BiFP (imaging flow cytometry): increasing concentration from 2.5 to 40 μM
Method: FIG. 2a and FIG. 2b show the results of the analysis of hMSCs binding to BiFP. The hMSCs were labeled with Hochest 33258, and incubated with FITC-labeled BiFP for 1 h, followed by imaging flow cytometry on an Amnis Imaging Cytometer (left). Bar=10 μm. Quantification of the percentage of BiFP-bound hMSCs (right).
The FITC-labeled BiFP or rhodamine-labeled collagen XII-targeting peptide (Col12-TP) are chemically synthesized by Biomertech (USA) or ABI (USA) to identify peptide binding by confocal microscopic observation. Briefly, for FITC-BiFP or rhodamine-Col12-TP treatment, 1×10^6 hMSCs incubated with 1 μM DilC18 in 37° C. for 10 min and then incubated in final 200 μl PBS with fluorescent peptide at 0, 2.5, 10, 40 μM in 37° C. for 30 min with gently mixing every 10 min. Cells are counterstained with mounting solution containing DAPI. Peptide fluorescence was taken using an ImageXpress Micro Confocal High Content Imaging system (Molecular Devices, Sunnyvale, CA, USA).

[2] = test system: chondrocyte line hiP cells; experiment: Col12-TP binding to chondrocyte line hiP cells; type: cell-based
[3] = test system: rat OA knee joints; experiment: Rat papain/cysteine OA model, histology and modified Mankin score 8 weeks post-transplantation; type: in vivo
Method: (§1) FIG. 4a and FIG. 4b show the FITC-fluorescence-labeled BiFP without or with blocking peptide (FIG. 4a) and the DilC18-fluorescence-labeled rat MSCs (rMSCs) without or with delivery in BiFP (BiFP+rMSCs) (FIG. 4b) are intra-articularly injected into rat OA knee joints pre-established with papain/cysteine, respectively. The whole joint capsules are removed at 24 h post-injection, and articular surfaces of the distal femur are observed under a two-photon microscope. Representative images of second harmonic generation (SHG) signals in collagen and fluorescent signals of BiFP (FIG. 4a) and rMSCs (FIG. 4b) are shown (left). Quantification of overall fluorescence areas (right). FIG. 4c and FIG. 4d show the representative images of Hematoxylin and eosin (H&E) staining (FIG. 4c), and safranin-O/fast green staining (FIG. 4d) of distal femurs of sham-control or OA knee joints collected 8 weeks post-transplantation without or with BiFP, rMSCs, and rMSCs delivered in BiFP (BiFP+rMSCs). […] Bar=50 μm. The data are shown as mean±SD. * p<0.05, ** p<0.01 and **** p<0.0001 as determined by Student's t test (2 groups) or one-way ANOVA (≥3 groups).
Furthermore, after incubation with BiFP, MSCs are immediately injected into OA joints in a rat model, and the joints are subjected to histological examination 8 weeks post-transplantation.

[4] = Particle size distribution by dynamic light scattering (DLS); type: physicochemical; settings: 0.2 mg/ml in PBS at 25° C.
Method: (§2) The triple helix structure of BiFP, collagen, or denatured collagen peptides was measured at 0.2 mg/ml.
(§3) In the present invention, a bifunctional peptide (BiFP) is synthesized to prevent complicated chemical steps and improve efficiency. A 42-residue peptide (BiFP) with a sequence where GPOGPOGPOGPOGFOGERGPOGPOGPOGPODLQYWYPIWDTH, O is hydroxyproline, was prepared in PBS, pH 7.4 at 25° C. by Biomedical Translation Research Center (Taiwan). The triple helix structure of BiFP, collagen, or denatured collagen peptides was measured at 0.2 mg/ml, respectively. The particle size distribution of 0.2 mg/ml BiFP in PBS at 25° C. was examined by dynamic light scattering (DLS). […] Size was evaluated using dynamic light scattering: Malvern ZS90 zetasizer (Malvern Instruments Corp, Malvern, UK).

[5] = Circular dichroism (CD) spectroscopy of secondary structure; type: physicochemical; settings: 0.2 mg/ml; PBS, pH 7.4
Method: as §2, §3

[6] = test system: hMSCs; experiment: hMSC viability, Calcein-AM / ethidium homodimer staining; type: cell-based, human; settings: compared to Col12-TP; 0, 2.5, 10, 40 μM
Method: (§4) The hMSCs are incubated with Col12-TP or BiFP peptide for 1 h, and stained with Calcein-AM (green) and ethidium homodimer (magenta), followed by confocal microscopic observation (left). Bar=50 μm. The quantification of viable cell percentages (right). […] The hMSCs are stained with 1,9 dimethylmethlyene blue (DMB) dye and analyzed at OD 525 nm. Results are normalized by PicoGreen dsDNA quantitation. The data are shown as mean±SD. * p<0.05, ** p<0.01, *** p<0.001 and **** p<0.0001 as determined by Student's t test (2 groups) or the ANOVA (≥3 groups).
For BiFP or Col12-TP treatment, 1×10^6 hMSCs incubated in final 200 μl PBS with peptide at 0, 2.5, 10, 40 μM in 37° C. for 30 mins with gently mixing every 10 min. Cells are stained with Calcein-AM (ThermoFisher) for live hMSCs and ethidium homodimer (Life Technologies) for dead hMSCs, respectively. Labeled hMSCs are visualized with ImageXpress Micro Confocal High Content Imaging system (Molecular Devices, Sunnyvale, CA, USA). Three independent images each group are counted live hMSCs and quantified.

[7] = test system: hMSCs; experiment: WST-1 proliferation assay of peptide-bound hMSCs; type: cell-based, human; settings: compared to Col12-TP
[8] = test system: hMSCs; experiment: Real-time RT-PCR of chondrogenic genes in peptide-bound hMSCs; type: cell-based, human; settings: compared to Col12-TP; at 1 week
[9] = test system: hMSCs; experiment: sGAG production in peptide-bound hMSCs (DMB dye); type: cell-based, human; settings: compared to Col12-TP; at 2 weeks
Method: as §4

[10] = test system: OA cartilage; experiment: OA-specific targeting of labeled BiFP, two-photon microscopy of rat OA joints; type: in vivo; settings: intra-articular injection, rat OA joint, 24 h post-injection
Method: as §1
Since BiFP can home to OA cartilage and the chondrogenesis-inducing ability of integrin α2β1 is likely to induce MSCs to undergo chondrogenesis, the BiFP is applied in the delivery of human MSCs to the OA cartilage surface for OA regenerative medicine.

[11] = test system: intervertebral disc (IVD); experiment: Rat intervertebral disc damage model induced by 20 G needle puncture; type: in vivo; settings: rat tail
Text: FIG. 7a is the schematic flowchart of the experimental design for intervertebral disc (IVD) regeneration by PBS, BiFP, EGFP-expressing hMSCs without or with delivery in BiFP (BiFP+hMSCs) in the rat intervertebral disc damage model induced by 20 G needle puncture. The rats were sacrificed at the indicated time point. The rat tail tissues were subjected to X-Ray, T2-weighted MRI, Hematoxylin and eosin (H&E), Safranin O/fast green stain, immunohistochemistry and immunofluorescence analysis. […] FIG. 7d and FIG. 7e show the representative images of H&E staining and safranin-O/fast green staining of NP tissues, respectively. […] Positive signal is visualized as brown color (DAB). […] Cell nuclei were counterstained with 4′, 6-diamidino-2-phenylindole (DAPI). Bar=50 μm. […] X-ray, T2-weighted MRI and histological, histochemical and immunofluorescence analyses reveal the successful induction of IVD damage when compared PBS group with sham control group (FIG. 7b-7e).

[12] = test system: corneal epithelium; experiment: Rat corneal epithelial injury model induced by n-heptanol; type: in vivo; settings: one eye drop (20 μl); up to 2 weeks after injury
Method: FIG. 8a is the schematic flowchart of the experimental design for corneal epithelium regeneration by EGFP-expressing hMSCs without or with delivery in BiFP (BiFP+hMSCs) in the rat corneal epithelium damage model. […] Representative fluorescein-stained cornea images are shown at indicated time points (left). Quantification of the percentage of healed area was calculated using ImageJ Fiji software (right). * p<0.05, ** p<0.01 and *** p<0.001 as determined by One Way ANOVA. […] Bar=50 μm. […] Positive signal is visualized as brown color (DAB) and NC is negative control. Bar=50 μm. To further confirm the utility of BiFP as a cell carrier and expand the application of BiFP-delivered MSCs in corneal epithelial defect regeneration, a rat model of severe and corneal epithelial injury induced by repeated n-heptanol administration was utilized.

Substance: Col12-TP: collagen XII-targeting peptide of the applicant's previous application TW202128730 (DLQYWYPIWDTH; also: rhodamine-labeled) [reference compound]
- binding to hMSCs [1]: cannot bind to hMSCs
- binding to collagen XII-expressing hiP cells [2]: can bind to Col12-TP
- histology (H&E, safranin-O) of OA knee joints [3]: still exhibited severe OA

Substance: GPOGPOGPOGPOGFOGERGPOGPOGPOGPODLQYWYPIWDTH [BiFP]
- particle size (main size) by dynamic light scattering [4]: ~ 1.914 nm and 1.914 nm
- conformation in solution by CD spectroscopy [5]: stable triple-helical conformation
- binding to hMSCs [1]: can bind to hMSCs in a dose-dependent manner
- percentage of cells surrounded by FITC-conjugated BiFP (imaging flow cytometry) [1]: increase in the percentage of cells surrounded by FITC-conjugated BiFP
- cell viability of hMSCs [6]: increase cell viability
- cell proliferation of hMSCs [7]: increase
- expression of chondrogenic genes sox9, col2a1 and aggrecan [8]: increased expression of chondrogenic genes
- synthesis of glycosaminoglycan [9]: enhance synthesis of glycosaminoglycan
- fluorescent signal (red dots) in OA cartilage [10]: apparent red dots are observed
- histology (H&E, safranin-O) of OA knee joints [3]: still exhibited severe OA
- intervertebral disc regeneration / damage (T2 MRI, safranin-O) [11]: still exhibited severe IVD damage
- corneal epithelial defect (fluorescein staining) [12]: remained markedly defective even 2 weeks after injury

Substance: GPOGPOGPOGPOGVMGFOGPOGPOGPOGPODLQYWYPIWDTH [BiFP containing a GVMGFO sequence]
- binding to hMSCs [1]: can also bind to hMSCs
- percentage of cells surrounded by FITC-conjugated BiFP (imaging flow cytometry) [1]: increase in the percentage of cells surrounded by FITC-conjugated BiFP
